PubChem BioAssay AID330 (DTP/NCI, 2004)
“And” between values parts separate entries of the source, which are not always exact repeats. Equal values may be shown once. Inconclusive results and toxic doses are left out. Rule for the calls: active = survival T/C of 150% or more; inactive = T/C below 125% in these data.

System: P388 leukemia ip, CD2F1 mice, survival T/C
Test: NCI In Vivo Anticancer Drug Screen. Data for tumor model P388 Leukemia (intraperitoneal) in CD2F1 (CDF1) mice
Conditions: endpoint: median survival time, higher = longer survival
Procedure, shortened: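 Mice carrying the transplanted tumor received test compound or vehicle. Survival was recorded in each group, and the value is the treated-group measurement divided by that of the vehicle-treated control group.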

[1] = dose: 50.0 mg/kg/injection, schedule: Q01DX009 (ip), vehicle: saline
[2] = dose: 100.0 mg/kg/injection, schedule: Q01DX009 (ip), vehicle: saline
[3] = dose: 12.5 mg/kg/injection, schedule: Q01DX009 (ip), vehicle: Klucel (hydroxypropylcellulose) (HPC)
[4] = dose: 25.0 mg/kg/injection, schedule: Q01DX009 (ip), vehicle: Klucel (hydroxypropylcellulose) (HPC)
[5] = dose: 60.0 mg/kg/injection, schedule: Q01DX005 (ip), vehicle: saline with Tween-80
[6] = dose: 120.0 mg/kg/injection, schedule: Q01DX005 (ip), vehicle: saline with Tween-80
[7] = dose: 240.0 mg/kg/injection, schedule: Q01DX005 (ip), vehicle: saline with Tween-80
[8] = dose: 50.0 mg/kg/injection, schedule: Q01DX009 (ip), vehicle: saline with Tween-80
[9] = dose: 100.0 mg/kg/injection, schedule: Q01DX009 (ip), vehicle: saline with Tween-80
[10] = dose: 200.0 mg/kg/injection, schedule: Q01DX009 (ip), vehicle: saline with Tween-80
[11] = dose: 50.0 mg/kg/injection, schedule: Q01DX005 (ip), vehicle: saline with Tween-80
[12] = dose: 100.0 mg/kg/injection, schedule: Q01DX005 (ip), vehicle: saline with Tween-80
[13] = dose: 200.0 mg/kg/injection, schedule: Q01DX005 (ip), vehicle: saline with Tween-80
[14] = dose: 25.0 mg/kg/injection, schedule: Q01DX009 (ip), vehicle: saline
[15] = dose: 200.0 mg/kg/injection, schedule: Q01DX009 (ip), vehicle: saline
[16] = dose: 12.5 mg/kg/injection, schedule: Q01DX009 (ip), vehicle: saline
[17] = dose: 100.0 mg/kg/injection, schedule: Q04DX003 (ip), vehicle: saline with Tween-80
[18] = dose: 200.0 mg/kg/injection, schedule: Q04DX003 (ip), vehicle: saline with Tween-80
[19] = dose: 400.0 mg/kg/injection, schedule: Q04DX003 (ip), vehicle: saline with Tween-80

Measured: T/C

C(=Nc1cccnc1)c1ccc(C=Nc2cccnc2)cc1
inactive: [1] 108 % of control | [2] 104 % of control

CCCCCCCCN(C)N=Nc1ccccc1C(=O)O
inactive: [3] 105 % of control | [4] 118 % of control | dose: 50.0 mg/kg/injection, schedule: Q01DX009 (ip), vehicle: Klucel (hydroxypropylcellulose) (HPC) 115 % of control | dose: 100.0 mg/kg/injection, schedule: Q01DX009 (ip), vehicle: Klucel (hydroxypropylcellulose) (HPC) 108 % of control

CCC1CN2CCc3cc(OC)c(OC)cc3C2C/C1=C/C(=O)O (centres undefined)
inactive: dose: 50.0 mg/kg/injection, schedule: Q01DX009 (ip), vehicle: suspension in saline 95 % of control | dose: 100.0 mg/kg/injection, schedule: Q01DX009 (ip), vehicle: suspension in saline 92 % of control

Nc1ncnc2c1c(-c1ccccc1)cn2-c1ccccc1
inactive: [5] 103 % of control | [6] 104 % of control | [7] 98 % of control

CC(NS(=O)(=O)c1ccccc1)c1ccccc1 (centres undefined)
inactive: dose: 100.0 mg/kg/injection, schedule: Q04DX003 (ip), vehicle: Klucel (hydroxypropylcellulose) (HPC) 100 % of control | dose: 200.0 mg/kg/injection, schedule: Q04DX003 (ip), vehicle: Klucel (hydroxypropylcellulose) (HPC) 106 % of control | dose: 400.0 mg/kg/injection, schedule: Q04DX003 (ip), vehicle: Klucel (hydroxypropylcellulose) (HPC) 113 % of control

COc1ccc2cc3[n+](c(CC(=O)O)c2c1OC)CCc1cc2c(cc1-3)OCO2
inactive: dose: 0.63 mg/kg/injection, schedule: Q01DX009 (ip), vehicle: water 101 % of control | dose: 1.25 mg/kg/injection, schedule: Q01DX009 (ip), vehicle: water 88 % of control | dose: 2.5 mg/kg/injection, schedule: Q01DX009 (ip), vehicle: water 105 % of control | dose: 5.0 mg/kg/injection, schedule: Q01DX009 (ip), vehicle: water 117 % of control | dose: 10.0 mg/kg/injection, schedule: Q01DX009 (ip), vehicle: water 118 % of control

CCCCCCCCCCCC(O)CCCCC (centres undefined)
inactive: dose: 100.0 mg/kg/injection, schedule: Q04DX003 (ip), vehicle: other 100 % of control | dose: 200.0 mg/kg/injection, schedule: Q04DX003 (ip), vehicle: other 100 % of control | dose: 400.0 mg/kg/injection, schedule: Q04DX003 (ip), vehicle: other 100 % of control

O=[N+]([O-])c1ccc(OCS(=O)(=O)c2ccc(Cl)cc2)cc1
inactive: [8] 95 % of control | [9] 92 % of control | [10] 95 % of control

O=S1(=O)NC2CCC3NS(=O)(=O)NC4CCC(N1)N4S(=O)(=O)N23 (centres undefined)
inactive: dose: 50.0 mg/kg/injection, schedule: Q01DX005 (ip), vehicle: distilled water + alcohol 101 % of control | dose: 100.0 mg/kg/injection, schedule: Q01DX005 (ip), vehicle: distilled water + alcohol 109 % of control | dose: 200.0 mg/kg/injection, schedule: Q01DX005 (ip), vehicle: distilled water + alcohol 105 % of control

CCCN=C1NS(=O)(=O)c2ccccc21
inactive: [11] 110 % of control | [12] 98 % of control | [13] 93 % of control

O=S1(=O)CCC(N2CCCCC2)C1 (centres undefined)
inactive: [14] 102 % of control | [1] 94 % of control | [2] 104 % of control | [15] 98 % of control

O=C1c2ccccc2C(=O)N1/N=[N+](\[O-])c1ccccc1
inactive: dose: 25.0 mg/kg/injection, schedule: Q01DX005 (ip), vehicle: Klucel (hydroxypropylcellulose) (HPC) 105 % of control | dose: 50.0 mg/kg/injection, schedule: Q01DX005 (ip), vehicle: Klucel (hydroxypropylcellulose) (HPC) 88 % of control | dose: 100.0 mg/kg/injection, schedule: Q01DX005 (ip), vehicle: Klucel (hydroxypropylcellulose) (HPC) 106 % of control | dose: 200.0 mg/kg/injection, schedule: Q01DX005 (ip), vehicle: Klucel (hydroxypropylcellulose) (HPC) 110 % of control

CCCCCCC1(/C=C/c2ccc(Cl)c(Cl)c2)SCCS1
inactive: dose: 12.0 mg/kg/injection, schedule: Q01DX009 (ip), vehicle: saline with Tween-80 100 % of control | [16] 105 % of control | dose: 25.0 mg/kg/injection, schedule: Q01DX009 (ip), vehicle: saline with Tween-80 107 % of control | [14] 102 % of control | [8] 104 % of control | [9] 100 % of control | [2] 102 % of control and 90 % of control

Nc1ccc(-c2c[nH]c(=O)c([N+](=O)[O-])c2)cc1
inactive: [8] 99 % of control | [9] 99 % of control | [10] 100 % of control

CCOc1ccc(/C=N/NS(=O)(=O)c2ccccc2)cc1OC
inactive: [17] 100 % of control | [18] 95 % of control | [19] 100 % of control

CCOc1cccc2c1C(=O)c1cccc(OCC)c1C2=O
inactive: [17] 109 % of control | [18] 104 % of control | [19] 100 % of control

Fc1c(F)c(F)c(CCc2c(F)c(F)c(F)c(F)c2F)c(F)c1F
inactive: [5] 99 % of control | [6] 89 % of control | [7] 88 % of control

O=C(N=Cc1ccco1)C(=O)Nc1ccc(Cl)c([N+](=O)[O-])c1
inactive: [8] 100 % of control | [9] 91 % of control | [10] 96 % of control

O=[N+]([O-])c1ccc(-c2nc3ccncc3[nH]2)cc1
inactive: [1] 107 % of control | [2] 104 % of control | [15] 93 % of control

COc1ccc(C2(c3ccc(OC)cc3)ON(C(c3ccccc3)c3ccccc3)C2=O)cc1
inactive: [5] 95 % of control | [6] 91 % of control | [7] 89 % of control

Cc1cc(=O)n2[nH]cnc2n1
inactive: [3] 97 % of control | [4] 109 % of control and 110 % of control and 98 % of control | dose: 200.0 mg/kg/injection, schedule: Q01DX009 (ip), vehicle: Klucel (hydroxypropylcellulose) (HPC) 99 % of control and 107 % of control and 109 % of control | dose: 400.0 mg/kg/injection, schedule: Q01DX009 (ip), vehicle: Klucel (hydroxypropylcellulose) (HPC) 104 % of control and 119 % of control

Nc1nc(N)nc(N)n1
inactive: [9] 106 % of control | [10] 107 % of control | dose: 400.0 mg/kg/injection, schedule: Q01DX009 (ip), vehicle: saline with Tween-80 99 % of control | dose: 800.0 mg/kg/injection, schedule: Q01DX009 (ip), vehicle: saline with Tween-80 96 % of control

CCCC(O)C(NC(=O)CCl)C(=O)O (centres undefined)
inactive: [16] 105 % of control and 97 % of control | [14] 100 % of control | [1] 104 % of control and 88 % of control | [2] 91 % of control | [15] 86 % of control

CC(=O)/C(=C\c1ccco1)C(=O)CCN(C)C
inactive: dose: 60.0 mg/kg/injection, schedule: Q01DX005 (ip), vehicle: saline 108 % of control and 109 % of control and 115 % of control | dose: 120.0 mg/kg/injection, schedule: Q01DX005 (ip), vehicle: saline 106 % of control and 118 % of control and 120 % of control | dose: 240.0 mg/kg/injection, schedule: Q01DX005 (ip), vehicle: saline 108 % of control and 115 % of control | dose: 480.0 mg/kg/injection, schedule: Q01DX005 (ip), vehicle: saline 101 % of control

O=C(O)CC1SC2(C(=O)N(Cc3ccccc3)c3ccccc32)N(c2ccccc2)C1=O (centres undefined)
inactive: [11] 89 % of control | [12] 95 % of control | [13] 89 % of control

Clc1nn2ccnc2c2cccnc12
inactive: dose: 12.5 mg/kg/injection, schedule: Q04DX003 (ip), vehicle: Klucel (hydroxypropylcellulose) (HPC) 100 % of control | dose: 25.0 mg/kg/injection, schedule: Q04DX003 (ip), vehicle: Klucel (hydroxypropylcellulose) (HPC) 103 % of control
